Measured values as given in US20230295119A1, “SUBSTITUTED PYRIDINES FOR THE TREATMENT OF INFLAMMATORY DISEASES” (GOSSAMER BIO SERVICES, INC., priority 2020, published 2023).

Assays:
[1] = biological target: human JAK3 (Homo sapiens (Human), UniProt P52333); test: JAK3 TR-FRET kinase assay; format: biochemical; conditions: JAK3 0.0125 nM
[2] = biological target: human JAK2 (Homo sapiens (Human), UniProt O60674); test: JAK2 TR-FRET kinase assay; format: biochemical; conditions: JAK2 0.025 nM
[3] = biological target: human JAK1 (Homo sapiens (Human), UniProt P23458); test: JAK1 TR-FRET kinase assay; format: biochemical; conditions: TR-FRET, JAK1 2.5 nM
Sequence of human JAK1 (P23458 whole entry, the tested form may be a part): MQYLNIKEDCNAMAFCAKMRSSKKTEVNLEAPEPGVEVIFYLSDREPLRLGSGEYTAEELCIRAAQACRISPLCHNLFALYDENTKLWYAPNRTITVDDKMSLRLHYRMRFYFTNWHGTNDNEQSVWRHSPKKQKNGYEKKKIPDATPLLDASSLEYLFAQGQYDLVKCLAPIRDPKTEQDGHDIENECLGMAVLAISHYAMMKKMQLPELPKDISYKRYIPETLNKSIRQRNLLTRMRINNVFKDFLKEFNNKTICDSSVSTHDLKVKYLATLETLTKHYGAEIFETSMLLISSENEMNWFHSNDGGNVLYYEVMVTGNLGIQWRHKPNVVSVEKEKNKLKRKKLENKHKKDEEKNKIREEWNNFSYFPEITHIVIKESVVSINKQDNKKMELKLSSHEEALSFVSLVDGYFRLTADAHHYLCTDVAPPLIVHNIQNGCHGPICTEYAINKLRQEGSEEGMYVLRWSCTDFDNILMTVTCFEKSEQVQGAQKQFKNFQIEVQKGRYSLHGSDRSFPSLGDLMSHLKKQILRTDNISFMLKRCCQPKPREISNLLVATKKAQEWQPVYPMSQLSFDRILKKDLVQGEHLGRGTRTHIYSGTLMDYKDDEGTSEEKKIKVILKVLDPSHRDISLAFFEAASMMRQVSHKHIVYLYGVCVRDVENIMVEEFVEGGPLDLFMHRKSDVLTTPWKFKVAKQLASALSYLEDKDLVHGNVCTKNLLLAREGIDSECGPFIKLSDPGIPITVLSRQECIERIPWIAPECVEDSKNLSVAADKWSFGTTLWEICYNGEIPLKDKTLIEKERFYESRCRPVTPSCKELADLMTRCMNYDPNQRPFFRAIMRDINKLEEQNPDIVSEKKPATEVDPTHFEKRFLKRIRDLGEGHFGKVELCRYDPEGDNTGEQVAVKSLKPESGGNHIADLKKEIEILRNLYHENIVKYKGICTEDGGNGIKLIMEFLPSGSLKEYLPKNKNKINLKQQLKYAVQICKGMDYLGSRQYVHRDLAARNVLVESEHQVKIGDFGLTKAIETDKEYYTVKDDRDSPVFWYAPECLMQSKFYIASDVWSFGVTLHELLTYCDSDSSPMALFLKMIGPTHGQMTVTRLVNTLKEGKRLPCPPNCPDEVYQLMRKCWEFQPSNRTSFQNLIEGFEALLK

[4] = biological target: TYK2 JH2 domain (Homo sapiens (Human), UniProt P29597); test: TYK2 JH2 NanoBRET assay; format: binding; conditions: Table 20, read-out: TYK2 IC50
Sequence of TYK2 JH2 domain (P29597 589-875): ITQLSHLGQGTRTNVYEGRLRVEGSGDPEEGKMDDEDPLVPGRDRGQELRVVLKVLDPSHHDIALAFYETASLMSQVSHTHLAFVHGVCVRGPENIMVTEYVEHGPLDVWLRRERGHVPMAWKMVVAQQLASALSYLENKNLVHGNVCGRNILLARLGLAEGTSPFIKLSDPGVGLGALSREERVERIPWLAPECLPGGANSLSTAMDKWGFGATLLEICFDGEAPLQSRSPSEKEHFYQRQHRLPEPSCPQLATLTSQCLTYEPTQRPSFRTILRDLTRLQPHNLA
Method: HEK293T cells were transfected with NanoLuc-TYK2 JH2 Fusion Vector (Promega, customized) using Trans-IT reagent (Mirus, #MIR2700) and incubated for overnight in 37° C. incubator. […] Add 85 µL of cell suspension into white, polypropylene, 96-well plates (Corning, #3600). 90 µL of cells were used for no tracer control samples. 5 µL of diluted NanoBRET K10 tracer (Promega, #CS1810C122) were added to cells to a final concentration of 0.5 µM. Test compounds were diluted into DMSO, and then phenol-free opti-MEM to 10X of final concentration. 10 µL of diluted compounds were added into each well. The cells were incubated with test compound and tracer for 2 hours. 3XNanoBRET® Nano-Glo® Substrate and Extracellular NanoLuc® Inhibitor mixture were prepared and 50 µL of the mixture were added into the wells and mixed. […] NanoBRET signal was determined by using the ratio of acceptor signal and donor signal.

Sequence of human JAK3 (P52333 whole entry): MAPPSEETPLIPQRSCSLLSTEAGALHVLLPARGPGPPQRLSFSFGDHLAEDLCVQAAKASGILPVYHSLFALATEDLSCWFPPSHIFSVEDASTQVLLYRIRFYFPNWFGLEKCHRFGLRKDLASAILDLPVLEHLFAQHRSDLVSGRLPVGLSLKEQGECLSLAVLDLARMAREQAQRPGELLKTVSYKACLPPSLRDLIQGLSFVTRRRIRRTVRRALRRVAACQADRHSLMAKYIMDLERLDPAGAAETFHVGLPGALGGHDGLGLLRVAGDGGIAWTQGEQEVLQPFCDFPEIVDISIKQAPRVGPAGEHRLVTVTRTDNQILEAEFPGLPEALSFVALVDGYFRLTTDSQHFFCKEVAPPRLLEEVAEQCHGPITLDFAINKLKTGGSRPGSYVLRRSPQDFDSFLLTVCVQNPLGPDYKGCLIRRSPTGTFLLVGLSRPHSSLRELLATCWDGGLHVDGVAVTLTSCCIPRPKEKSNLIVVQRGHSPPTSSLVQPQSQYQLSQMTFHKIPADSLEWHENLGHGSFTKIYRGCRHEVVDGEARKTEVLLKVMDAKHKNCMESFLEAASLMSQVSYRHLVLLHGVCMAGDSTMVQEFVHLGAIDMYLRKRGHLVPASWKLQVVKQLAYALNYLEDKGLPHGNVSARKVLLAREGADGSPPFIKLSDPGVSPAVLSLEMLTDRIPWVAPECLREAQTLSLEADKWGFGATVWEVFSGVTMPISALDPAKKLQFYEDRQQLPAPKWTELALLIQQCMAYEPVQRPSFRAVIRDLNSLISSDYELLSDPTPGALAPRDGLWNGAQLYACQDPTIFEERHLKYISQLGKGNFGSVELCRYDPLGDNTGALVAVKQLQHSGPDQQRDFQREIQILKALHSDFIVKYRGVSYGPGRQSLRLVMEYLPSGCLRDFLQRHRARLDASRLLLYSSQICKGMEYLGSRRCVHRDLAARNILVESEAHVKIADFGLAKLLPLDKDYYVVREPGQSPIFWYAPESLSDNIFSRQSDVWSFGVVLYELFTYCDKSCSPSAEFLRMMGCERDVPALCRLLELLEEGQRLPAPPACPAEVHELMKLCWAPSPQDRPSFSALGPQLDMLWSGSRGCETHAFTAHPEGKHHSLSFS
Sequence of human JAK2 (O60674 whole entry): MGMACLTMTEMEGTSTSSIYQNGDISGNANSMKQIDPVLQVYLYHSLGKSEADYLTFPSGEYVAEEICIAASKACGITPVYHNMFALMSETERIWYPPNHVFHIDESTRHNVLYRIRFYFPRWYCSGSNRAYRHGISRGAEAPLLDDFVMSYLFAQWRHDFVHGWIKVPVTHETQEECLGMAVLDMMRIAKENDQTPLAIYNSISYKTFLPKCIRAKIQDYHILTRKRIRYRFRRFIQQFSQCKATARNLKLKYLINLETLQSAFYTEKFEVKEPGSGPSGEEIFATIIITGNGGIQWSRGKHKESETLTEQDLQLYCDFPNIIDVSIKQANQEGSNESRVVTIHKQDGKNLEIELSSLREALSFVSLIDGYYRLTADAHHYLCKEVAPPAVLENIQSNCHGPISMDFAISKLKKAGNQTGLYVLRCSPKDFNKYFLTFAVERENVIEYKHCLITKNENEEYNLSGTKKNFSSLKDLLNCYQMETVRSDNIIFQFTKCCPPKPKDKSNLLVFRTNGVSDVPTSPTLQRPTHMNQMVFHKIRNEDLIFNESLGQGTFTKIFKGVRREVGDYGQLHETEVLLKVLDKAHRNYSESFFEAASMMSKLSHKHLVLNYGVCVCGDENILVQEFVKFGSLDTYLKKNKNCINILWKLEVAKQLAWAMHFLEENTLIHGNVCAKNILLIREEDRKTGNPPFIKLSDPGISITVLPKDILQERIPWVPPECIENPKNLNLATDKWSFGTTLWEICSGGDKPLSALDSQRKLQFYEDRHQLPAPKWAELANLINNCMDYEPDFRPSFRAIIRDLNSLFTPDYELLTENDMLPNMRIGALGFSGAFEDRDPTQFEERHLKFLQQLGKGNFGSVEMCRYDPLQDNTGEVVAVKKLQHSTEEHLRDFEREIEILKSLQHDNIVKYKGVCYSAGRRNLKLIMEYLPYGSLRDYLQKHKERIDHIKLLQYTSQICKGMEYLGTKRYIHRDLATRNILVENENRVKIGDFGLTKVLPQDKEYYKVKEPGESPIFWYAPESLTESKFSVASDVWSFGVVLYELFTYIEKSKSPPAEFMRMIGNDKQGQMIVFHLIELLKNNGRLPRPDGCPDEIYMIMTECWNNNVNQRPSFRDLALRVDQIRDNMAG

CCC(=O)c1cnc(Nc2ccc(CN)nn2)cc1Nc1cccc(-c2ncn(C)n2)c1OC [Compound 9FFF]
IC50 [1]: ≥ 500 nM | IC50 [2]: ≥ 500 nM | IC50 [3]: ≥ 500 nM | IC50 [4]: 50 to 500 nM

CCC(=O)c1cnc(Nc2ccc(CN3CC(C#N)C3)cn2)cc1Nc1cccc(-c2ncn(C)n2)c1OC [Compound 9FF]
IC50 [1]: 50 to 500 nM | IC50 [2]: ≥ 500 nM | IC50 [3]: ≥ 500 nM | IC50 [4]: 5 to 50 nM

COc1c(Nc2cc(Nc3ccc(CN(C)C)cn3)ncc2C(=O)C2CC2)cccc1-c1ncn(C)n1 [Compound 9F]
IC50 [1]: ≥ 500 nM | IC50 [2]: ≥ 500 nM | IC50 [3]: ≥ 500 nM | IC50 [4]: 5 to 50 nM

CCC(=O)c1cnc(Nc2cccc(CN3CCCCC3)n2)cc1Nc1cccc(-c2ncn(C)n2)c1OC [Compound 9GGGG]
IC50 [1]: ≥ 500 nM | IC50 [2]: ≥ 500 nM | IC50 [3]: ≥ 500 nM | IC50 [4]: 5 to 50 nM

CCC(=O)c1cnc(Nc2ccc(CNC)nn2)cc1Nc1cccc(-c2ncn(C)n2)c1OC [Compound 9GGG]
IC50 [1]: ≥ 500 nM | IC50 [2]: ≥ 500 nM | IC50 [3]: ≥ 500 nM | IC50 [4]: 5 to 50 nM

CCC(=O)c1cnc(Nc2ccc([C@H](C)N3CC(O)C3)cn2)cc1Nc1cccc(-c2ncn(C)n2)c1OC [Compound 9GG]
IC50 [1]: ≥ 500 nM | IC50 [2]: ≥ 500 nM | IC50 [3]: ≥ 500 nM | IC50 [4]: 5 to 50 nM

CCC(=O)c1cnc(Nc2ccc(C(C)N)cn2)cc1Nc1cccc(-c2ncn(C)n2)c1OC (stereo not drawn) [Compound 9G]
IC50 [1]: ≥ 500 nM | IC50 [2]: ≥ 500 nM | IC50 [3]: ≥ 500 nM | IC50 [4]: < 5 nM

CCC(=O)c1cnc(Nc2cccc(CN3CCOCC3)n2)cc1Nc1cccc(-c2ncn(C)n2)c1OC [Compound 9HHHH]
IC50 [1]: ≥ 500 nM | IC50 [2]: ≥ 500 nM | IC50 [3]: ≥ 500 nM | IC50 [4]: < 5 nM

CCC(=O)c1cnc(Nc2ccc(CN(C)C)nn2)cc1Nc1cccc(-c2ncn(C)n2)c1OC [Compound 9HHH]
IC50 [1]: ≥ 500 nM | IC50 [2]: ≥ 500 nM | IC50 [3]: ≥ 500 nM | IC50 [4]: 5 to 50 nM

CCC(=O)c1cnc(Nc2ccc([C@@H](C)N3CC(O)C3)cn2)cc1Nc1cccc(-c2ncn(C)n2)c1OC [Compound 9HH]
IC50 [1]: ≥ 500 nM | IC50 [2]: ≥ 500 nM | IC50 [3]: ≥ 500 nM | IC50 [4]: 5 to 50 nM

CCC(=O)c1cnc(Nc2ccc(C(C)NC)cn2)cc1Nc1cccc(-c2ncn(C)n2)c1OC (stereo not drawn) [Compound 9H]
IC50 [1]: ≥ 500 nM | IC50 [2]: ≥ 500 nM | IC50 [3]: ≥ 500 nM | IC50 [4]: < 5 nM

CCC(=O)c1cnc(Nc2cc(CN3CCCC3)ccn2)cc1Nc1cccc(-c2ncn(C)n2)c1OC [Compound 9IIII]
IC50 [1]: 50 to 500 nM | IC50 [2]: 50 to 500 nM | IC50 [3]: ≥ 500 nM | IC50 [4]: < 5 nM

CCC(=O)c1cnc(Nc2ccc(C(C)N)nn2)cc1Nc1cccc(-c2ncn(C)n2)c1OC (stereo not drawn) [Compound 9III]
IC50 [1]: ≥ 500 nM | IC50 [2]: ≥ 500 nM | IC50 [3]: ≥ 500 nM | IC50 [4]: 5 to 50 nM

CCC(=O)c1cnc(Nc2ccc(CN3CCCC3)cn2)cc1Nc1cccc(-c2ncn(C)n2)c1OC [Compound 9II]
IC50 [1]: ≥ 500 nM | IC50 [2]: ≥ 500 nM | IC50 [3]: ≥ 500 nM | IC50 [4]: < 5 nM

CCC(=O)c1cnc(Nc2ccc(C(C)N(C)C)cn2)cc1Nc1cccc(-c2ncn(C)n2)c1OC (stereo not drawn) [Compound 9I]
IC50 [1]: ≥ 500 nM | IC50 [2]: ≥ 500 nM | IC50 [3]: ≥ 500 nM | IC50 [4]: < 5 nM

CCC(=O)c1cnc(Nc2cc(CN3CCCCC3)ccn2)cc1Nc1cccc(-c2ncn(C)n2)c1OC [Compound 9JJJJ]
IC50 [1]: 50 to 500 nM | IC50 [2]: ≥ 500 nM | IC50 [3]: ≥ 500 nM | IC50 [4]: < 5 nM

CCC(=O)c1cnc(Nc2ccc(C(C)NC)nn2)cc1Nc1cccc(-c2ncn(C)n2)c1OC (stereo not drawn) [Compound 9JJJ]
IC50 [1]: ≥ 500 nM | IC50 [2]: ≥ 500 nM | IC50 [3]: ≥ 500 nM | IC50 [4]: 5 to 50 nM

CCC(=O)c1cnc(Nc2ccc(CN3CC[C@@H](F)C3)cn2)cc1Nc1cccc(-c2ncn(C)n2)c1OC [Compound 9JJ]
IC50 [1]: ≥ 500 nM | IC50 [2]: ≥ 500 nM | IC50 [3]: ≥ 500 nM | IC50 [4]: < 5 nM

CCC(=O)c1cnc(Nc2ccc([C@@H](C)N(C)C)cn2)cc1Nc1cccc(-c2ncn(C)n2)c1OC [Compound 9J]
IC50 [1]: ≥ 500 nM | IC50 [2]: ≥ 500 nM | IC50 [3]: ≥ 500 nM | IC50 [4]: < 5 nM

CCC(=O)c1cnc(Nc2cc(CN3CCOCC3)ccn2)cc1Nc1cccc(-c2ncn(C)n2)c1OC [Compound 9KKKK]
IC50 [1]: 50 to 500 nM | IC50 [2]: ≥ 500 nM | IC50 [3]: ≥ 500 nM | IC50 [4]: < 5 nM

CCC(=O)c1cnc(Nc2ccc(C(C)N(C)C)nn2)cc1Nc1cccc(-c2ncn(C)n2)c1OC (stereo not drawn) [Compound 9KKK]
IC50 [1]: ≥ 500 nM | IC50 [2]: ≥ 500 nM | IC50 [3]: ≥ 500 nM | IC50 [4]: < 5 nM
